Laboratory results reported in patent publication US9388147B2 (Receptos, Inc., priority 2009, dated 2016).
Where a name gives a salt, the structure may show the parent alone. Read-outs that look alike come from different tables or passages of the source.

Assays:
[1] = tested on: CD4 or CD8 positive T cells; test: Lymphopenia in mice; assay type: in vivo; details: female C57BL6 mice, 1 mg/kg oral gavage, area under the effect curve over 24 h
Experimental: In mice: Female C57BL6 mice (Simonsen Laboratories, Gilroy Calif.) were housed in an ALAAC accredited facility and the research was approved by the facilities Institutional Animal Care and Use Committee (IACUC). The animals were acclimated to the laboratory for at least 5 days prior to initiation of experiments. Mice (n=3/compound/time-point) were dosed by oral gavage with 1 mg/kg compound formulated in a vehicle consisting of 5% DMSO/5% Tween 20 and 90% 0.1N HCl. Control mice were dosed PO with the vehicle. Terminal whole blood samples were collected from isoflurane anesthetized mice by cardiac puncture into EDTA. Whole blood was incubated with rat anti-mouse CD16/CD32 (Mouse BD Fc Block, #553141), PE-Rat anti-mouse CD45R/B220 (BD #553089), APC-Cy7-Rat anti-mouse CD8a (BD #557654), and Alexa Fluor647-Rat anti-mouse CD4 (BD #557681) for 30 min on ice. Red blood cells were lysed using BD Pharm Lyse Lysing buffer (#555899) and white blood cells were analyzed by FACS. Lymphopenia was expressed as the % of white blood cells that were CD4 or CD8 positive T cells. The overall lymphopenia response over 24 h was estimated by calculating the area under the effect curve (AUEC) using the linear trapezoidal rule.

[2] = Determination of absolute oral bioavailability in rats; assay type: in vivo, Sprague-Dawley rat; details: non-fasted female Sprague-Dawley rats, oral solution 0.3 mg/kg (85), 2 mg/kg (49, 50), iv 0.3 mg/kg (49, 50), 0.8 mg/kg racemic 85/86
Experimental: All pharmacokinetic studies were conducted in non-fasted female Sprague-Dawely rats (Simonsen Laboratories or Harlan Laboratories). Rats were housed in an ALAAC accredited facility and the research was approved by the facilities Institutional Animal Care and Use Committee (IACUC). The animals were acclimated to the laboratory for at least 48 h prior to initiation of experiments.
Compounds were formulated in 5% DMSO/5% Tween20 and 90% purified water (intravenous infusion) or 5% DMSO/5% Tween20 and 90% 0.1N HCL (oral gavage). The concentration of the dosing solutions was verified by HPLC-UV. For intravenous dosing, compounds were administered by an infusion pump into the jugular vein over one minute to manually restrained animals (n=4 rats/compound). The intravenous doses were 0.8 for a 1:1 mixture (racemic) of 85 and 86, and 0.3 and 0.3 mg/kg for compounds 49 and 50, respectively. Oral dosing was by gavage using a standard stainless steel gavage needle (n=2-4 rats/compound). The oral solution doses were 0.3, 2 and 2 mg/kg for compounds 85, 49 and 50, respectively. For both routes of administration, blood was collected at eight time-points after dosing with the final sample drawn 24 h post dose. Aliquots of the blood samples were transferred to polypropylene 96-well plate and frozen at −20° C. until analysis. […]
Concentrations in the rat pharmacokinetic samples were determined using a standardized HPLC-LC/MS/MS method relative to the eight point standard curve. […] Collision energies used to generate daughter ions ranged between 29 and 39 V. Peak area ratios obtained from MRM of the mass transitions specific for each compound were used for quantification. The limit of quantification of the method was typically 5 nM. Data were collected and analyzed using Analyst software version 1.4.2.
Blood concentration versus time data were analyzed using non-compartmental methods (WinNonlin version 5.2; model 200 for oral dosing and model 202 for intravenous infusion). Absolute oral bioavailability (%) was calculated using the following expression: (Oral AUC×IV Dose)/(IV AUC×Oral Dose)×100. […]

S1P1/EDG1 = S1P1/EDG1 (Homo sapiens, UniProt P21453); test: S1P1 CRE-bla CHOK1 reporter assay, inhibition of Forskolin induced cAMP; assay type: cell-based
How it was run: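 Read-out is a FRET β-lactamase substrate (2 h, room temperature) after 4 h, 37 °C compound treatment under 2 μM Forskolin in stable S1P1-transfected CRE-bla CHO-K1 cells. Ten-point curves; non-linear regression gives EC50 for inhibition of Forskolin-stimulated cAMP.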

[3] = S1P1 CRE-bla CHOK1, with Forskolin, read-out: S1P1 agonist value (EC50)
[4] = agonist activity range, S1P1 CRE-bla CHOK1, 2 μM Forskolin, read-out: S1P1 ACTIVITY

Chain of S1P1/EDG1 (P21453 whole entry): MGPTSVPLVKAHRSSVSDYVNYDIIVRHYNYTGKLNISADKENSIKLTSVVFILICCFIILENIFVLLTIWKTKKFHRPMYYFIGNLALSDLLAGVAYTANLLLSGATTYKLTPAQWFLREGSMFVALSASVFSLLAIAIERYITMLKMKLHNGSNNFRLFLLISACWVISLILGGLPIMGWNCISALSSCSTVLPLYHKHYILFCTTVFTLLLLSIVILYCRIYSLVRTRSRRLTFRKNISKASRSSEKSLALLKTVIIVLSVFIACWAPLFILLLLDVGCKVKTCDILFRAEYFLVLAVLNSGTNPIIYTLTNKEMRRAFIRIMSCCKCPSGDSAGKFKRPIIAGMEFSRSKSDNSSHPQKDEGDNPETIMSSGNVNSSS

Compound: CC(C)Oc1ccc(-c2nc(-c3cccc4c3CC[C@H]4NCCO)no2)cc1C#N [Compound 85, (R)-5-(3-(1-(2-hydroxyethylamino)-2,3-dihydro-1H-inden-4-yl)-1,2,4-oxadiazol-5-yl)-2-isopropoxybenzonitrile]
- Mouse Lymphopenia (AUEC) [1]: 1425
- Rat - Oral bioavailability Solution [2]: 69%

Compound: CC(C)Oc1ccc(-c2nc(-c3cccc4c3CC[C@H]4N)no2)cc1C#N [Compound 49, (R)-5-(3-(1-amino-2,3-dihydro-1H-inden-4-yl)-1,2,4-oxadiazol-5-yl)-2-isopropoxy-benzonitrile hydrochloride]
- Mouse Lymphopenia (AUEC) [1]: 1762
- bioavailability ([2]; rat, whole blood): 93%
- EC50 (S1P1/EDG1; [3]): 0.17 nM
- EC50 (S1P1/EDG1; [4]): 0.05 to 0.5 nM

Compound: CC(C)Oc1ccc(-c2nc(-c3cccc4c3CC[C@H]4NCC(=O)N(C)C)no2)cc1C#N [Compound 90, (R)-2-(4-(5-(3-cyano-4-isopropoxyphenyl)-1,2,4-oxadiazol-3-yl)-2,3-dihydro-1H-inden-1-ylamino)-N,N-dimethylacetamide hydrochloride]
- Mouse Lymphopenia (AUEC) [1]: 1486
- EC50 (S1P1/EDG1; [3]): 0.13 nM
- EC50 (S1P1/EDG1; [4]): 0.05 to 0.5 nM

Compound: CC(C)Oc1ccc(-c2nc(-c3cccc4c3CC[C@@H]4NCC(=O)N(C)C)no2)cc1C#N [Compound 91, (S)-2-(4-(5-(3-cyano-4-isopropoxyphenyl)-1,2,4-oxadiazol-3-yl)-2,3-dihydro-1H-inden-1-ylamino)-N,N-dimethylacetamide]
- Mouse Lymphopenia (AUEC) [1]: 1408
- EC50 (S1P1/EDG1; [3]): 0.09 nM
- EC50 (S1P1/EDG1; [4]): 0.05 to 0.5 nM

Compound: CC(C)Oc1ccc(-c2nc(-c3cccc4c3CC[C@@H]4N)no2)cc1C#N [Compound 50, (S)-5-(3-(1-amino-2,3-dihydro-1H-inden-4-yl)-1,2,4-oxadiazol-5-yl)-2-isopropoxy-benzonitrile]
- Mouse Lymphopenia (AUEC) [1]: 1632
- Rat - Oral bioavailability Solution [2]: 91%
- EC50 (S1P1/EDG1; [3]): 0.19 nM
- EC50 (S1P1/EDG1; [4]): 0.05 to 0.5 nM
